Assay results published in patent US7015228B2, “4-amino-2-(2-pyridyl)pyrimidines as microbicidal active substances” (Ciba Specialty Chemicals Corporation, priority 2001, dated 2006).
In brackets after ≈: the same amount, converted by molar mass. Read-outs that look alike come from different tables or passages of the source.

Experiments:
Assay type in all cases: cell-based
[1] = test system: S. epidermidis ATCC 12228; assay: Minimum inhibitory concentration (MIC), further microorganisms; conditions: Table 8, * = significant inhibition of growth, but not complete inhibition
Experimental: (§1) Determination of the Minimum Inhibitory Concentration (MIC Value) in Microtitre Plates
(§2) Casein-soybean flour-peptone broth for preparation of pre-cultures of test bacteria and yeast.
(§3) Mycological slant agar for the pre-culture of moulds
(§4) The test substances are pre-dissolved in dimethyl sulfoxide (DMSO) and tested in a dilution series of 1:2.
(§5) Bacteria and yeast are cultured overnight in CASO broth, the mould is cultured overnight on mycological slant agar, and washed off using 10 ml of 0.85% sodium chloride solution (+0.1% Triton X-100).
(§6) All the test organisms are adjusted to an organism count of 1–5×10^6 CFU/ml using 0.85% sodium chloride solution.
(§7) The test substances are pre-pipetted into microtitre plates in amounts of 8 μl per well.
(§8) Pre-diluted organism suspensions are diluted 1:100 in CASO broth (bacteria and yeast) or Sabouraud 2% glucose broth (mould) and are added in amounts of 192 μl per well to the test substances.
(§9) The test batches are incubated for 48 hours at 37° C. (bacteria and yeast) or for 5 days at 28° C. (mould).
(§10) After incubation, the growth is determined on the basis of the turbidity of the test batches (optical density) at 620 nm in a microplate reader.
(§11) The minimum inhibitory concentration (MIC value) is the concentration of substance at which there is found (compared to the growth of the control) an appreciable inhibition of growth (≦20% growth) of the test organisms.
(§12) One microtitre plate is used for each test organism and substance concentration. All the substances are tested in duplicate.

[2] = test system: Enterococcus hirae ATCC 10541; assay: as above; conditions: Table 8, * = significant inhibition of growth, but not complete inhibition
Experimental: as §1, §2, §3, §4, §5, §6, §7, §8, §9, §10, §11, §12

[3] = test system: Trichophyton mentagrophytes ATCC 9533; assay: as above; conditions: Table 8, * = significant inhibition of growth, but not complete inhibition
Experimental: as §1, §2, §3, §4, §5, §6, §7, §8, §9, §10, §11, §12

[4] = test system: Micrococcus luteus ATCC 9341; assay: as above; conditions: Table 8, * = significant inhibition of growth, but not complete inhibition
Experimental: as §1, §2, §3, §4, §5, §6, §7, §8, §9, §10, §11, §12

[5] = test system: Staphylococcus aureus ATCC 9144; assay: as above; conditions: Table 8, * = significant inhibition of growth, but not complete inhibition
Experimental: as §1, §2, §3, §4, §5, §6, §7, §8, §9, §10, §11, §12

[6] = test system: Epidermophyton floccosum DSM 10709; assay: as above; conditions: Table 8, * = significant inhibition of growth, but not complete inhibition
Experimental: as §1, §2, §3, §4, §5, §6, §7, §8, §9, §10, §11, §12

[7] = test system: Staphylococcus hominis DMS 20328; assay: Minimum inhibitory concentration (MIC) in microtitre plates; conditions: Table 7, 48 hours at 37° C., MIC = ≦20% growth compared to control
Experimental: as §1, §2, §3
(§13) Examples of Test Organisms:
as §4, §5, §6, §7, §8, §9, §10, §11, §12

[8] = test system: Escherichia coli NCTC 8196; assay: as above; conditions: for MIC: Escherichia coli, NCTC8196
Experimental: as §1, §2, §3, §13, §4, §5, §6, §7, §8, §9, §10, §11, §12

[9] = Table 7, 48 hours at 37° C., MIC = ≦20% growth compared to control
[10] = Table 8, * = significant inhibition of growth, but not complete inhibition

SMILES	Minimum inhibitory concentration (MIC) S. epidermidis ATCC 12228 [1] [µg/mL]	Minimum inhibitory concentration (MIC) Enterococcus hirae ATCC 10541 [2] [µg/mL]	Minimum inhibitory concentration (MIC) Trichophyton mentagrophytes ATCC 9533 [3]	Minimum inhibitory concentration (MIC) Micrococcus luteus ATCC 9341 [4] [µg/mL]	Minimum inhibitory concentration (MIC) Staphylococcus aureus ATCC 9144 [5]	Minimum inhibitory concentration (MIC) Epidermophyton floccosum DSM 10709 [6]	Minimum inhibitory concentration (MIC) S. hominis [7] [µg/mL]	Minimum inhibitory concentration (MIC) E. coli [8, 9] [µg/mL]	Minimum inhibitory concentration (MIC) E. coli NCTC 8196 [8, 10]	MIC ([1]; Staphylococcus epidermidis, ATCC12228) [µg/mL]	MIC ([2]; Enterococcus hirae, ATCC10541) [µg/mL]	MIC ([3]; Trichophyton mentagrophytes, ATCC9533) [µg/mL]	MIC ([4]; Micrococcus luteus, ATCC9341) [µg/mL]	MIC ([5]; Staphylococcus aureus, ATCC9144) [µg/mL]	MIC ([6]; Epidermophyton floccosum, DSM10709) [µg/mL]	MIC ([7]; Staphylococcus hominis, DMS20328, read-out: Minimum inhibitory concentration (MIC) S. hominis) [µg/mL]	MIC ([8]; Table 7, 48 hours at 37° C., MIC = ≦20% growth compared to control, read-out: Minimum inhibitory concentration (MIC) E. coli) [µg/mL]	MIC ([8]; Table 8, * = significant inhibition of growth, but not complete inhibition, read-out: Minimum inhibitory concentration (MIC) E. coli NCTC 8196) [µg/mL]
CCCCCCCCNc1cc(C(C)C)nc(-c2ccccn2)n1 [compound 45]	7.5 (≈ 23 µM)	3.75 (≈ 11.5 µM)	>60 µg/mL	3.75 (≈ 11.5 µM)	7.5 µg/mL (≈ 23 µM)	>60 µg/mL	3.75 (≈ 11.5 µM)	>120	>30 µg/mL									
CCCCCCCCCNc1cc(C(C)C)nc(-c2ccccn2)n1 [compound 46]	30 (≈ 88.1 µM)	30 (≈ 88.1 µM)	>60 µg/mL	3.75 (≈ 11 µM)	30 µg/mL (≈ 88.1 µM)	60 µg/mL (≈ 176 µM)	3.75 (≈ 11 µM)	>120	>60 µg/mL									
CCCCCCCCCCNc1cc(C(C)C)nc(-c2ccccn2)n1 [compound 47]										3.75 (≈ 10.6 µM)	3.75 (≈ 10.6 µM)	60 (≈ 169 µM)	< 0.5	7.5 (≈ 21.2 µM)	60 (≈ 169 µM)	5 (≈ 14.1 µM)	> 80	> 60
CCCCCCCNc1cc(C(C)(C)C)nc(-c2ccccn2)n1 [compound 56]	3.75 (≈ 11.5 µM)	1.9 (≈ 5.82 µM)	*30 μg/mL	<0.5	3.75 µg/mL (≈ 11.5 µM)	*30 μg/mL	3.75 (≈ 11.5 µM)	>120	>60 µg/mL									
CCCCCCCCNc1cc(C(C)(C)C)nc(-c2ccccn2)n1 [compound 57]	1.9 (≈ 5.58 µM)	1.0 (≈ 2.94 µM)	*60 μg/mL	<0.5	1.9 µg/mL (≈ 5.58 µM)	60 µg/mL (≈ 176 µM)	3.75 (≈ 11 µM)	>120	>60 µg/mL									
CCCCCCCCCNc1cc(C(C)(C)C)nc(-c2ccccn2)n1 [compound 58]	1.9 (≈ 5.36 µM)	7.5 (≈ 21.2 µM)	>60 µg/mL	<0.5	*1.9 μg/mL	>60 µg/mL	3.75 (≈ 10.6 µM)	>120	>60 µg/mL									
CC(C)(C)c1cc(NCCc2ccccc2)nc(-c2ccccn2)n1 [compound 63]	30 (≈ 90.2 µM)	30 (≈ 90.2 µM)	*60 μg/mL	7.5 (≈ 22.6 µM)	15 µg/mL (≈ 45.1 µM)	*15 μg/mL	3.75 (≈ 11.3 µM)	>120	*60 μg/mL									
CCCCCCCNc1nc(-c2ccccn2)nc(C)c1C(C)C [compound 68]	15 (≈ 45.9 µM)	7.5 (≈ 23 µM)	>60 µg/mL	3.75 (≈ 11.5 µM)	15 µg/mL (≈ 45.9 µM)	60* μg/mL	7.5 (≈ 23 µM)	>120	>30 µg/mL									
CCCCCCCCCNc1nc(-c2ccccn2)nc(C)c1C(C)C [compound 70]	7.5 (≈ 21.2 µM)	3.75 (≈ 10.6 µM)	15 µg/mL (≈ 42.3 µM)	1.0 (≈ 2.82 µM)	7.5 µg/mL (≈ 21.2 µM)	*7.5 μg/mL	3.75 (≈ 10.6 µM)	>120	>60 µg/mL									
CCCCCCCCCCNc1nc(-c2ccccn2)nc(C)c1C(C)C [compound 71]	7.5 (≈ 20.3 µM)	7.5 (≈ 20.3 µM)	*30 μg/mL	1.9 (≈ 5.16 µM)	7.5 µg/mL (≈ 20.3 µM)	60 µg/mL (≈ 163 µM)	5 (≈ 13.6 µM)	>80	>60 µg/mL									
CCCCCCCCCCNc1cc(CCOC)nc(-c2ccccn2)n1 [compound 83]	15 (≈ 40.5 µM)	30 (≈ 81 µM)	>60 µg/mL	3.75 (≈ 10.1 µM)	*15 μg/mL	>60 µg/mL	7.5 (≈ 20.2 µM)	>120	>60 µg/mL									
